Test results reported in patent publication US4766122A, “Cyanoamidine compounds and derivatives thereof” (Smith Kline & French Laboratories Limited, priority 1985, dated 1988).

Key:
[1] = system: left ventricular dp/dt max (left ventricular contractility); experiment: Cardiac stimulant activity in vivo: left ventricular dp/dt max in anaesthetised cats; design: species or system cat; conditions: anaesthetised cats pretreated with pempidine and propranolol, intravenous
PDE (Peak III) [2] = experiment: Inhibition of PDE (Peak III) from cat heart; type: biochemical; conditions: read-out: IC50 (50% inhibition of PDE (Peak III) activity); 1 μM cyclic AMP, 37°, pH 7.5
Experimental: (§1) There were three major peaks which had the following characteristics:
(§2) The enzyme was assayed by incubation at 37° for 4-30 min in 50 mM Tris, 5 mM MgCl2, pH 7.5 with [3-H]cyclic nucleotide (4×10^5 disintegrations min^-1) and [14-C]nucleotide 5' monophosphate (3×10^3 disintegrations min^-1). […] The reaction mixture was diluted with 0.5 ml 100 mM HEPES (N-2-Hydroxyethyl-piperazine-N'-2-ethanesulfonic acid), 100 mM NaCl, pH 8.5, and applied to the column. […] The recovery of product as judged by [14-C]recovery was approximately 80%. All assays were linear with time of incubation and concentration of enzyme over the range used in these experiments.

[3] = system: guinea pig right ventricular strips; experiment: Cardiac stimulant activity in vitro: increase in force of contraction of electrically stimulated ventricular strips; conditions: Cavia porcellus, read-out: EC50 (50% increase in the force of contraction of the ventricular strips); 37° C., stimulated at 1.0 Hz, cumulative concentration response
Experimental: The compounds of formula (I) and their pharmaceutically acceptable salts are tested for cardiac stimulant activity following a procedure based on that of S.C. Verma and J. H. McNeill (J. Pharm & Exp. Therapeutics, 200, 352-362 (1977)). Guinea pigs (500-700 g) of either sex are sacrificed and the hearts are quickly removed and transferred to a dissecting dish containing oxygenated bathing fluid. While in the bathing medium, the right ventricle is cut into two strips. The strips are each suspended in a 50 ml bath containing Krebs Henseleit solution at 37° C., and the bath is bubbled with 95% oxygen and 5% carbon dioxide. The ventricular strips are electrically stimulated at a frequency of 1.0 Hz, at double the threshold voltage. A resting tension of 1.0 g is applied to the strips and the tension is kept constant by readjustment during an equilibration period of 60 minutes. The bathing fluid is frequently changed during this period. When a steady base line is obtained, a compound under test is added to the bathing fluid and a cumulative concentration response curve is plotted.

PDE (Peak III) [4] = conditions: eluted at 0.5 M Na acetate
Experimental: as §1, §2

PDE (Peak II) = conditions: eluted at 0.3 M Na acetate
Experimental: as §1, §2

PDE (Peak I) = experiment: Substrate kinetics of PDE (Peak I) from cat heart; type: biochemical

Row | Structure (SMILES) | duration of activity [1] | ED50 ([1]; Felis catus, read-out: ED50 (dose to increase left ventricular dp/dt max by 50%)) [µmol/kg] | IC50 (PDE (Peak III) [2]) [nM] | EC50 [3] [nM] | Km (PDE (Peak III) [4]) [µM] | Relative Vmax (PDE (Peak III) [4]) | Km (PDE (Peak II)) [µM] | Relative Vmax (PDE (Peak II)) | Relative Vmax (PDE (Peak I); 50 μg/ml calmodulin added) | Relative Vmax (PDE (Peak I); without 50 μg/ml calmodulin)
1 | Nc1cc(-c2ccncc2)c[nH]c1=O [Amrinone] | short duration of activity |  |  |  |  |  |  |  |  | 
2 | CCC(=NC#N)Nc1ccc(C2=NNC(=O)CC2C)cc1 (centres unmarked) [Example 1, 6-[4-(N^2 -Cyanopropanimidamido)phenyl]-5-methyl-4,5-dihydro-3(2H)-pyridazinone] | long duration of activity | 0.02 | 80 | 65 |  |  |  |  |  | 
3 | Nc1nc2c(ncn2[C@@H]2O[C@@H]3COP(=O)(O)O[C@H]3[C@H]2O)c(=O)[nH]1 [cyclic GMP] |  |  |  |  | 2.9 | 0.4 | 28 | 0.2 | 7.2 | 1.1
